One data set has as its system HSV-2. As to the kind of experiment: In vitro assay for anti-HSV-2 mRNA activity (QuantiGene Plex 2.0 bDNA) in infected primary endothelial cells. Type of data set: cell-based, HSV type 2. The note with it: best-fit value, primary Adult Human Dermal Microvascular Endothelial Cells, overnight incubation; for IC50: Human alphaherpesvirus 2, Endothelial cell, HSV-2 mRNA; for LogIC50 / HillSlope: variable slope fit; for LogIC50: concentrations in µM. How it is done: (§1) In vitro assays for anti-HSV-1 and anti-HSV-2 mRNA activity are described in Example 1. Confluent Vero cell monolayers were infected with HSV type 1 or HSV type 2 at a multiplicity of infection of 10 and the resultant virus was used to infect primary Adult Human Dermal Microvascular Endothelial Cells for 1 hour; the supernatant was replaced with fresh culture media and then incubated overnight in the presence of various concentrations of acyclovir, 2-deoxy-D-glucose or an equimolar combination of the two compounds. After overnight incubation, the cells were harvested, lysed, and subjected to QuantiGene Plex 2.0 assay (Panomics, Inc., Fremont, CA) for quantitative assay of HSV-1 and HSV-2 mRNA. The QuantiGene Plex 2.0 assay combines branched DNA (bDNA) signal amplification and multi-analyte profiling beads (xMAP®) technologies to enable the detection and quantitation of multiple mRNA targets simultaneously. Briefly, confluent Vero cell monolayers were infected with HSV type 1 or HSV type 2 at a multiplicity of infection of 10 and the resultant virus was used to infect primary Adult Human Dermal Microvascular Endothelial Cells for 1 hour and then the supernatant was replaced with fresh culture media and then incubated overnight in the presence of various concentrations of acyclovir, 2-deoxy-D-glucose or an equimolar combination of the two compounds. Generally, this assay is considered to be a more sensitive and specific assay (bDNA) for the final readout when compared to an ELISA. The ELISA method while easier, can lack specificity to determine the difference between HSV1 and HSV2. The bDNA assay is a hybridization-based method of target-specific RNA quantitation that amplifies signal rather than target RNA, using labeled DNA probes. The QuantiGene Plex 2.0 system utilizes fluorescent microspheres (Capture Beads) as a support to capture specific RNA molecules. The ability to quantify multiple target-specific RNA molecules in a single sample lies in the design of the Probe Sets. For each RNA molecule of interest, an oligonucleotide Probe Set containing three types of synthetic probes, Capture Extenders (CEs), Label Extenders (LEs), and Blockers (BLs) that hybridize and span contiguous sequences of the target RNA, is provided. The CEs discriminate among the different Capture Beads within the bead array while capturing, via cooperative hybridization, the target RNA. Signal amplification is mediated by DNA amplification molecules that hybridize to the tails of the LEs. Each amplification unit contains multiple hybridization sites for biotinylated Label Probes that bind Streptavidin-conjugated R-Phycoerythrin (SAPE). The resulting fluorescence signal associated with individual Capture Beads is read on a Luminex flow cytometer. Signal is reported as median fluorescence intensity (MFI) and is proportional to the number of target RNA molecules present in the sample. All compounds were run in triplicate for each concentration. Concentrations are expressed in micromolar (µM) concentrations. The IC50 (the drug concentration that reduces the number of virally infected cells by 50%) were determined by plotting the reduction in fluorescence (RLU) versus the drug concentration using Graph Pad Prism software. Specifically, the variable slope model was used to calculate the IC50s with the formula "Y=Bottom + (Top-Bottom)/(1+10^((LogIC50-X)*HillSlope))" using Graph Pad Prism software. The data is shown graphically in Figures 1 and 2. The error bars represent the standard error of the mean (SEM). Table 1. IC50 of Acyclovir and/or 2-Deoxy-D-glucose against HSV-1. […]

A further data set relates to HSV-1. Kind of data set: In vitro assay for anti-HSV-1 mRNA activity (QuantiGene Plex 2.0 bDNA) in infected primary endothelial cells. Type of data set: cell-based, HSV type 1. To be noted: best-fit value, primary Adult Human Dermal Microvascular Endothelial Cells, overnight incubation; for IC50: Human alphaherpesvirus 1, Endothelial cell, HSV-1 mRNA; for LogIC50 / HillSlope: variable slope fit; for LogIC50: concentrations in µM. How it is done: as §1

For data set [1] the following is noted: local application compared with oral; cited from earlier work.

For orientation: IC50 means the concentration needed to halve the response being measured.

In the case of `O=CC[C@@H](O)[C@H](O)[C@H](O)CO` [2 Deoxy D glucose, 2-deoxy-D-glucose], in the data set on HSV-2, the IC50 was found to be 8 µM, the LogIC50 is 0.9029 and the HillSlope is listed as -3.957. Moreover, in the data set on HSV-1, the IC50 is 20.9 µM, the LogIC50 was found to be 1.32 and the HillSlope was -2.395.
Consider `Nc1nc2c(ncn2COCCO)c(=O)[nH]1` [Acyclovir, 9-(2-hydroxyethoxymethyl)guanine], for which, in the data set on HSV-2, the IC50 turned out to be 1.91 µM, the LogIC50 is 0.2805 and the HillSlope was -1.113. Besides, in the data set with HSV-1, the IC50 was 1.78 µM, the LogIC50 stood at 0.2509 and the HillSlope was -1.108. For the same compound, the “drug concentration in the skin after local application versus given orally” value in data set [1] is on record as 2-3 times lower.

Source of the values: EP2782585B1, “ANTIVIRAL FORMULATIONS” (3B Pharmaceuticals, Inc., priority 2011, dated 2013).
